Assay results taken from patent publication US20100029683A1, “Methods for regulating cell mitosis by inhibiting serine/threonine phosphateses” (priority 2008, published 2010).

Experiments:
U87 cells [1] = assay: U87 cell growth in vitro, viable cell count; format: cell-based, human; conditions: U87 cells (FIG. 6), read-out: IC50, inhibition of GBM cell growth
Procedure: FIG. 6: Effect of compound 102 on U87 cells in vitro at 1 uM; 2 uM; 5 uM; and 10 uM.
Viable cells were counted (mean and s.d.; n=3; Coulter particle counter).

U373 cells [2] = assay: Cell cycle distribution of U373 cells by FACS after 48 hours; format: cell-based, human; conditions: U373, 48 hours
Procedure: (§1) Cells in unsynchronized logarithmic growth were exposed to vehicle or drug and adherent cells and cells in the media were collected. Harvested cells were fixed with 70% cold ethanol for 20 min at −20 degrees, washed with PBS, and stained with 10 ug/ml of PI and 1 ug/ml RNAse in TBS for 30 minutes and analyzed by FACS. A, Flow cytometry profiles of U87 cells after exposures to DMSO only, compound 102 only, 5 uM; TMZ only, 25 uM; compound 102 with TMZ combination, doxorubicin only, 2.0 uM and compound 102 with doxorubicin combination. B, Flow cytometry profiles of U373 cells.
(§2) We analyzed cell cycle patterns of U87MG and U373 cells 48 hours after exposure to TMZ or DOX alone and in combination with compound 102.

U87MG = assay: Western blots of pAkt, p53 and MDM2 in U87MG cells after 24 hours; format: cell-based, human; conditions: compound 102 2.5 uM, TMZ 25 uM, DOX 2 uM
Procedure: (§3) 5×10^6 U87MG cells were inoculated s.c. into each flank of 20 SCID mice. When the xenografts were 0.5±0.1 cm (day 0), 5 animals each received i.p. vehicle alone days 1-12 (50% DMSO/H2O); compound 102 alone at 1.5 mg/kg days 1-3,5-7, & 9-11; TMZ alone at 80 mg/kg days 4, 8, 12; or both drugs at the same doses and schedules. If xenografts reached 1800 mm^3, animals were sacrificed. […] B, Survival curve combining the data from the study shown in FIG. 12A, with a second identical study involving a total of 10 animals with two xenografts each. Disease-free survival was defined as no recurrence of either xenografts. […] As in 12A, except that xenografts of SH-SY5Y cells were implanted in one flank only and animals were treated with one additional cycle of drugs, i.e., compound 102 on days 13-15, TMZ, on day 16, and compound 102 plus TMZ on the same schedules. […] E, Western blots of U87 cells in culture 24 hours after exposure to compound 102 at 2.5 uM, TMZ at 25 uM or DOX at 2 uM, and compound 102 plus TMZ or DOX. F, Western blots of U373 cells 24 hours after exposure to compound 102 at 2.5 uM, doxorubicin at 2 uM, and both drugs. G, Western blots of U373 cells 24 hours after exposure to TMZ at 25 uM, okadaic acid at 2 nM, and both drugs.
The effects of compound 102, TMZ, doxorubicin (DOX), a widely used anti-cancer drug that disrupts DNA replication, compound 102 plus TMZ, and compound 102 plus DOX on the amount of pAkt, p53 and MDM2 in U87MG, a cell line with wild-type p53, and in U373, a cell line with mutant p53 (Short et al, 2007) were assessed by Western blots.

[3] = Solubility character of lead compounds; format: physicochemical
PP1 = PP1 (Homo sapiens, UniProt P62136); assay: Inhibition of purified PP1 (Ser/Thr Phosphatase Assay Kit 1); format: biochemical
Chain of PP1 (P62136 whole entry): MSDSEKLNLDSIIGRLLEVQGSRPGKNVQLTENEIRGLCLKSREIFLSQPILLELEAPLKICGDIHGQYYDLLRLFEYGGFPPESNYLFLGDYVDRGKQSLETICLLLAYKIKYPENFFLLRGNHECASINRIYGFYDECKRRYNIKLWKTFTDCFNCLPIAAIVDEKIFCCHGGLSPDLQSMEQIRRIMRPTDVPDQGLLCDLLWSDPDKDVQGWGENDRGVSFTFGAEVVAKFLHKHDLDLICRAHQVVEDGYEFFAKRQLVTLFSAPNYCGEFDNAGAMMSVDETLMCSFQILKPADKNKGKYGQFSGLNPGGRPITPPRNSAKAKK
Excerpt: (§4) Inhibition of PP2A and PP1 activity by compound 102 on purified PP1 and PP2A (mean and s.d.; n=3) (Ser/Thr Phosphatase Assay Kit 1, Millipore, Billerica, Mass.)

NB xenografts = assay: Histologic examination of xenografts 24 hours after a single i.p. injection; format: in vivo, SCID mice; conditions: 24 hours after single i.p. injection
U87MG xenografts = assay: U87MG s.c. xenografts in SCID mice, compound 102 with TMZ; format: in vivo
Procedure: as §3
To determine the impact of altering DNA-damage defense mechanisms by inhibiting PP2A on the efficacy of cytotoxic chemotherapy, the effects of compound 102 combined with TMZ, a non-specific DNA-methylating drug, routinely used for the palliative treatment of GBM patients (Prados et al, 2008), were studied. SCID mice bearing s.c. xenografts of either the GBM line U87MG or the neuroblastoma line SH-SY5Y were treated with vehicle alone, compound 102 alone, TMZ alone, or both drugs at the same doses and schedules as when given alone.

[4] = test system: DAOY medulloblastoma cells; assay: DAOY medulloblastoma s.c. xenografts in SCID mice; format: in vivo; conditions: treatment from day 6, measured to day 23
Procedure: DAOY medulloblastoma cells were implanted subcutaneously into the flanks of SCID mice. On day 6, mice were divided into 3 groups, one group receiving Compound 100, one group receiving Compound 102, and one group receiving vehicle alone. The subcutaneous tumor masses were measured on day 6, day 13, day 18, and on day 23 when all animals were sacrificed. […] In this model DAOY cells, when untreated, reached their maximum growth about 2 weeks after implantation with slow regression thereafterwards.

U87 cells [5] = assay: Immunofluorescence staining of p53; format: cell-based, human; conditions: 24 hour exposure, compound 102 2.5 uM, TMZ 25 uM
U87MG cells [6] = assay: Cell cycle distribution of U87MG cells by FACS after 48 hours; format: cell-based, human
Procedure: as §1, §2

U87MG cells [7] = assay: Cellular and molecular changes in U87MG cells (immunofluorescence, Western blots); format: cell-based, human; conditions: 2.5 uM
Procedure: FIG. 11A-G: Cellular and molecular changes in U87 cells induced by compound 102 at 2.5 uM after 24 hour exposure (A-D, F, G) and after 3 hours ([…]).
A, Nuclear changes in U87 cells in unsynchronized logarithmic growth (upper panel, green immunofluorescence [IFS] GFP labeled-actin α and lower panel, blue DAPI staining). Numerous irregular nuclei with clumped chromatin in compound 102 treated cells are indicated by arrows. B, Disordered microtubules (green IFS tubulin-α and red IFS pPlk-1-Tre 210) and irregular clumped chromatin (blue DAPI) C, Western blots of U87 lysates: pAkt-1, total Akt-1, and β-actin. D, Western blots of U87 lysates: TCTP, pPlk (Tre-210), total Plk, and β-actin. E, IFS of TCTP in U87 cells, F, Western blots p53 (ser-15), pMDM2 (ser-166), and β-actin and G, IFS of p53 (ser-15).
TCTP is an abundant, highly conserved, multifunctional protein that binds to and stabilizes microtubules before and after mitosis and also exerts potent anti-apoptotic activity (Bommer and Thiele, 2004; Yarm, 2002; Susini et al, 2008) (FIG. 11E).

PP2A [8] = assay: PP2A activity in U87 s.c. xenografts and normal brain of SCID mice after i.p. injection; format: in vivo; conditions: single dose 1.5 mg/kg i.p.
Procedure: PP2A activity in U87 s.c. xenografts (blue) and in normal brain tissue (yellow) of SCID mice at different times after i.p. injection of 1.5 mg/kg compound 102 (one mouse per point; each lysate was measured in triplicate: mean and s.d.)

SH-SY5Y xenografts = assay: SH-SY5Y neuroblastoma s.c. xenografts in SCID mice, compound 102 with TMZ; format: in vivo; conditions: as U87MG study plus one additional cycle of drugs; followed 7 weeks
Procedure: 5×10^6 U87MG cells were inoculated s.c. into each flank of 20 SCID mice. When the xenografts were 0.5±0.1 cm (day 0), 5 animals each received i.p. vehicle alone days 1-12 (50% DMSO/H2O); compound 102 alone at 1.5 mg/kg days 1-3,5-7, & 9-11; TMZ alone at 80 mg/kg days 4, 8, 12; or both drugs at the same doses and schedules. If xenografts reached 1800 mm^3, animals were sacrificed. […] B, Survival curve combining the data from the study shown in FIG. 12A, with a second identical study involving a total of 10 animals with two xenografts each. Disease-free survival was defined as no recurrence of either xenografts. […] As in 12A, except that xenografts of SH-SY5Y cells were implanted in one flank only and animals were treated with one additional cycle of drugs, i.e., compound 102 on days 13-15, TMZ, on day 16, and compound 102 plus TMZ on the same schedules. […] E, Western blots of U87 cells in culture 24 hours after exposure to compound 102 at 2.5 uM, TMZ at 25 uM or DOX at 2 uM, and compound 102 plus TMZ or DOX. F, Western blots of U373 cells 24 hours after exposure to compound 102 at 2.5 uM, doxorubicin at 2 uM, and both drugs. G, Western blots of U373 cells 24 hours after exposure to TMZ at 25 uM, okadaic acid at 2 nM, and both drugs. […]

PP2A [9] = target: PP2A (Homo sapiens, UniProt P67775); assay: Inhibition of purified PP2A (Ser/Thr Phosphatase Assay Kit 1); format: biochemical
Chain of PP2A (Homo sapiens, UniProt P67775) (P67775 whole entry): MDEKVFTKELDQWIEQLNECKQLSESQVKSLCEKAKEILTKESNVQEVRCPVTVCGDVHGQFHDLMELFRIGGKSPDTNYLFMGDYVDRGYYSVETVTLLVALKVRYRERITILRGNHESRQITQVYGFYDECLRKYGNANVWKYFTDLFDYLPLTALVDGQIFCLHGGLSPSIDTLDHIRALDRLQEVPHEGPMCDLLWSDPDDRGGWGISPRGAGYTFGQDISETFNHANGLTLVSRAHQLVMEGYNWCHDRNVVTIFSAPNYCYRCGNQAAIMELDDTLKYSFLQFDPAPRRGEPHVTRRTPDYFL
Excerpt: as §4

U373 = assay: Inhibition of U373 glioblastoma cells after 7 days in culture, alone and in combination; format: cell-based, human; conditions: Compound 100 2.5 μM, cisplatin 0.1 μM, doxorubicin 0.01 μM, taxol 0.3 nM, each alone
Procedure: Cells were exposed to vehicle alone (control); Compound 100 at 2.5 uM; cisplatin at 0.1 uM; doxorubicin at 0.01 uM; or taxol at 0.3 nM alone or to the combination of Compound 100 plus each of the standard agents at the same concentrations. […] The expected percent inhibition at 7 days is the product of the inhibition by each agent alone.
Cells were exposed to vehicle alone (control); compound 100 at 2.5 μM, cisplatin at 0.1 μM; doxorubicin at 0.01 μM; or taxol at 0.3 nM alone or to the combination of compound 100 plus each of the standard agents at the same concentrations. […] The expected percent inhibition from a combination of drugs is calculated by multiplying the actual percent inhibition by each drug alone and comparing that product to the actual percent inhibition caused by the combination of the two drugs (Valeriote, 1975). The expected percent inhibition at 7 days is the product of the inhibition by each agent alone.

U373 cells [10] = assay: Western blots of pAkt-1, p53 and MDM2 in U373 cells after 24 hours; format: cell-based, human; conditions: U373, 2 nM
Procedure: as §3

SMILES: CC(C)(C)OC(=O)N1CCN(C(=O)C2C(C(=O)O)[C@H]3CC[C@@H]2O3)CC1 (stereo partly shown) [Compound 102]
- IC50 (U87 cells [1]): ~4 µM
- cell cycle profile (U373 cells [2]): no effect on this profile
- MDM2 on Western blot (U87MG): increased both pAkt-1 and MDM2
- p53 on Western blot (U87MG): eliminated p53
- pAkt-1 on Western blot (U87MG): increased both pAkt-1 and MDM2
- solubility character [3]: lipid soluble
- IC50 (PP1): ~80 µM
- cells with decreased cell size / small pyknotic nuclei (NB xenografts): ~50%
- time of sacrifice (xenografts reached 1800 mm^3) (U87MG xenografts; U87 xenografts, for the combination only the 3 mice with recurrence): 4-5 week
- growth of GBM (U87MG) xenografts (U87MG xenografts; compound 102 1.5 mg/kg i.p. days 1-3, 5-7, 9-11, TMZ 80 mg/kg days 4, 8, 12): minimally delayed growth
- GBM xenografts: animals with complete regression without recurrence (U87MG xenografts; compound 102 combined with temozolomide, greater than 28 weeks): 50%
- DAOY s.c. tumor mass [4]: marked regression of the tumor by day 23
- intracellular levels of p53 by immunofluorescence (U87 cells [5]): reduction of intracellular levels of p53
- G1 phase cells (U87MG cells [6]): decreased G1
- G2/M phase cells (U87MG cells [6]): prominently increased G2/M
- S phase cells (U87MG cells [6]): modestly increased S
- p53 abundance (U87MG cells [7]): decreased the abundance of p53
- phosphorylated MDM2 (U87MG cells [7]): increased phosphorylated MDM2
- TCTP abundance (U87MG cells [7]; 24 hour exposure): marked decrease in translationally controlled tumor protein
- microtubule and mitotic morphology (mitotic catastrophe) (U87MG cells [7]; 24 hour exposure): appearance of disordered microtubules and abnormal mitotic figures
- phosphorylated Akt-1 (U87MG cells [7]; 24 hour exposure): increased phosphorylated Akt-1
- phosphorylated Plk-1 (U87MG cells [7]; 24 hour exposure): increased phosphorylated Plk-1
- PP2A activity in normal brain tissue (PP2A [8]): inhibits PP2A activity
- PP2A activity in s.c. xenografts of U87 MG (PP2A [8]): inhibits PP2A activity
- growth of NB (SH-SY5Y) xenografts (SH-SY5Y xenografts): completely suppressed growth for 2 weeks
- IC50 (PP2A [9]): ~0.4 µM

SMILES: COc1cccc2c1C(=O)c1c(O)c3c(c(O)c1C2=O)C[C@@](O)(C(=O)CO)C[C@@H]3O[C@H]1C[C@H](N)[C@H](O)[C@H](C)O1 [DOX, doxorubicin]
- G1 phase cells (U373 cells [2]): reduced G1 and G2/M
- G2/M phase cells (U373 cells [2]): reduced G1 and G2/M
- S phase cells (U373 cells [2]): greatly increased S
- MDM2 on Western blot (U87MG): little effect on MDM2
- p53 on Western blot (U87MG): increased p53
- pAkt-1 on Western blot (U87MG): decreased pAkt-1
- inhibition at 7 days, agent alone (U373): 75.7%

SMILES: C=C1[C@@H](O)[C@@H]2O[C@]3(CC[C@H](/C=C/[C@@H](C)[C@@H]4CC(C)=C[C@@]5(O[C@H](C[C@@](C)(O)C(=O)O)CC[C@H]5O)O4)O3)CC[C@H]2O[C@@H]1[C@@H](O)C[C@H](C)[C@H]1O[C@@]2(CCCCO2)CC[C@H]1C [Okadaic acid, okadaic acid]
- effects on pAkt-1 and mutant p53 (U373 cells [10]): mimicked the effects of compound 102 on pAkt-1 and on mutant p53

SMILES: Cn1nnc2c(C(N)=O)ncn2c1=O [TMZ, temozolomide, reference compound]
- cells with cytoplasmic swelling and vacuolization (NB xenografts): ~50%

SMILES: CC(=O)O[C@H]1C(=O)[C@@]2(C)[C@H]([C@H](OC(=O)c3ccccc3)[C@]3(O)C[C@H](OC(=O)[C@H](O)[C@@H](NC(=O)c4ccccc4)c4ccccc4)C(C)=C1C3(C)C)[C@]1(OC(C)=O)CO[C@@H]1C[C@@H]2O [Taxol]
- inhibition at 7 days, agent alone (U373): 114%

SMILES: N.N.[Cl][Pt][Cl] [cisplatin]
- inhibition at 7 days, agent alone (U373): 93.5%
